Measurements published in BindingDB's records for doi:10.1021/jm060108a (University of Liège, 2006).

assay: Inhibition of U46619-induced platelet aggregation

Structure (SMILES) | IC50
Cc1ccc(Nc2ccc([N+](=O)[O-])cc2S(=O)(=O)NC(=O)NC(C)(C)C)cc1 [BM 573] | 240 nM
CCCCCNC(=O)NS(=O)(=O)c1cc([N+](=O)[O-])ccc1Nc1ccc(C)cc1 | 278 nM
CCCCCNC(=O)NS(=O)(=O)c1cc([N+](=O)[O-])ccc1Oc1ccc(C)cc1 [N-n-pentyl-N'-[2-(4-methylphenoxy)-5-nitrobenzenesulfonyl]urea] | 670 nM
Cc1ccc(Nc2ccc([N+](=O)[O-])cc2S(=O)(=O)NC(=O)N2CCCCC2)cc1 [N-[2-(4-methylphenylamino)-5-nitrobenzenesulfonyl]-piperidine-1-carboxamide] | 900 nM
Cc1ccc(Oc2ccc([N+](=O)[O-])cc2S(=O)(=O)NC(=O)NC(C)(C)C)cc1 [N-tert-butyl-N'-[2-(4-methylphenoxy)-5-nitrobenzenesulfonyl]urea] | 300 nM
Cc1ccc(Sc2ccc([N+](=O)[O-])cc2S(=O)(=O)NC(=O)NC(C)(C)C)cc1 [N-tert-butyl-N'-[2-(4-methylphenylthio)-5-nitrobenzenesulfonyl]urea] | 800 nM
Cc1cccc(C)c1Nc1ccc([N+](=O)[O-])cc1S(=O)(=O)NC(=O)NC(C)(C)C [N-tert-butyl-N'-[2-(2,6-dimethylphenylamino)-5-nitrobenzenesulfonyl]urea] | 90 nM
